Measured values as given in paper PMC6934184, “Selective DNA-PKcs inhibition extends the therapeutic index of localized radiotherapy and chemotherapy” (The Journal of Clinical Investigation, 2019).

Target: T1, BMX (Homo sapiens, UniProt P51813)
T1 construct: purchased Thermo Fisher Scientific (Life Technologies) SelectScreen
Test: SelectScreen Z'LYTE
Format: biochemical
Procedure, shortened: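 Compound tested in SelectScreen activity assays, Z'LYTE for CSF1R, CDK1/cyclin B and MAP2K6 and Adapta for CAMK1. ATP for CAMK1 was listed as 10, and Km app was used for CSF1R. Results are expressed in percent.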

T1 sequence (P51813 whole entry): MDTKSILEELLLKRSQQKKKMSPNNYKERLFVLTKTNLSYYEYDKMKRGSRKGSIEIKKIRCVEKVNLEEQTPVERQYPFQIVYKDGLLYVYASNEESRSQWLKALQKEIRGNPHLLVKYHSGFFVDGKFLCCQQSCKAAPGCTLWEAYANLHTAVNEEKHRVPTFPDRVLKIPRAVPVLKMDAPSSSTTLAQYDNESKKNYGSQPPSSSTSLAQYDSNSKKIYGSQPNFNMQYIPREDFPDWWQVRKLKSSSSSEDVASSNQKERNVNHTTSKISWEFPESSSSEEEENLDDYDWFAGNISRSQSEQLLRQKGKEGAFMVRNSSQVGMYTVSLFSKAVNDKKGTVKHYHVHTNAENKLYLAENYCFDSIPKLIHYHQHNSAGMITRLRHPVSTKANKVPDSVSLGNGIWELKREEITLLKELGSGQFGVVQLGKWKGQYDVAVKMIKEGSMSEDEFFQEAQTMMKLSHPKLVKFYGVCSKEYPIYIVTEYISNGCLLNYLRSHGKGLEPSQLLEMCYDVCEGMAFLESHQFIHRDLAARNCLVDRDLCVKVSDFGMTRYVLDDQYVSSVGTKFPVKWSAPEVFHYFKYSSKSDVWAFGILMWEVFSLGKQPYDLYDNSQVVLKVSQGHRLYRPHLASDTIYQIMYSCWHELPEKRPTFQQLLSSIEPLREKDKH

CN(C(=O)CN1CCOCC1)c1ccc2sc3c(-c4cccc5c(=O)cc(N6CC7CCC(C6)O7)oc45)cccc3c2c1 [NU5455]
inhibition at 1 µM: 4.4%
